Test results published in PMC4961418, “A Selective Irreversible Inhibitor of Furin Does Not Prevent Pseudomonas Aeruginosa Exotoxin A-Induced Airway Epithelial Cytotoxicity” (PLoS ONE, 2016).
Peptide text beside a SMILES is read from it. * marks the point of attachment. Decanoyl = CCCCCCCCCC(=O)*; CH2Cl = ClC*

Molecular target: cathepsin B (Homo sapiens, UniProt P07858)
Assay: Cathepsin B activity assay
Type: biochemical
Details: cathepsin B, N = 3
Description: Fig 3 Comparison of QUB-F1 and furin I versus cathepsin B. Cathepsin B activity was assessed in the presence or absence of various concentrations of QUB-F1 or furin I (N = 3). Data represent mean ± s.e.m.

CCCCCCCCCC(=O)N[C@@H](CCCNC(=N)N)C(=O)N[C@H](C(=O)N[C@@H](CCCCN)C(=O)N[C@@H](CCCNC(=N)N)C(=O)CCl)C(C)C [furin I, Decanoyl-RVKR-chloromethylketone (CMK), reference compound] (Decanoyl-RVKR-CH2Cl)
IC50: 56 nM
